Data reported in patent publication US20240082313A1, “PHARMACEUTICAL COMPOSITIONS AND THEIR METHODS OF USE” (The Trustees of Indiana University, priority 2021, published 2024).
“Also recorded” adds a separate entry of the source.

Experiments:
[1] = tested on: EO771 cells; experiment: Mouse model of mammary tumors; type: in vivo; details: EO771 cells in mammary fat pad
Excerpt: (§1) Animal models. The experimental procedures using animals were approved by the Indiana University Animal Care and Use Committee and were complied with the Guiding Principles in the Care and Use of Animals endorsed by the American Physiological Society. Mice were housed five per cage and provided with mouse chow and water ad libitum. In the mouse model of mammary tumors, C57BL/6 female mice (˜8 weeks, Envigo RMS, Inc., Indianapolis, IN, USA) were randomly assigned into five groups (14 mice per group). The placebo groups received cells transfected with a negative control vector, and the negative control group received cells transfected with β-catenin overexpression vector. The three treatment groups received β-catenin overexpressing iTS CM, BML-treated cells, and BML-treated iTS CM. Each group received a subcutaneous injection of EO771 cells (3.0×10^5 cells in 50 μl PBS) to the mammary fat pad. For tibial osteolysis, C57BL/6 female mice (8 mice per group) received an intra-tibial injection of EO771 cells (2.5×10^5 cells in 20 μl PBS) to the right tibia. The treatment group received iTS cell-derived CM as an injection into the intraperitoneal cavity. The animals were sacrificed on day 18, and the weight of each tumor was measured. To evaluate the effects of CMs for tumor invasion, an in vivo extravasation assay was conducted. […]

[2] = tested on: human breast cancer and prostate cancer tissues; experiment: Ex vivo tissue assay; type: cell-based; details: breast (ER-positive and -negative) and prostate cancer tissue
Description: Ex vivo tissue assay. The usage of human breast cancer and prostate cancer tissues was approved by the Indiana University Institutional Review Board. Two human breast cancer tissues (˜1 g each; estrogen receptor-positive and -negative) and prostate cancer tissue (˜1 g), received from Simon Cancer Center Tissue Procurement Core, were manually fragmented with a scalpel into small pieces (0.5˜0.8 mm in length). These pieces were grown in DMEM with 10% fetal bovine serum and antibiotics for a day. iTS cell-derived conditioned medium was then added for three additional days, and a change in the fragment size was determined. BML284 (10 μM) or β-catenin (40 ng/μ1) was applied to tissue fragments and CM was prepared as described above.

[3] = tested on: EO771 cells; experiment: In vivo extravasation assay; set-up: species or system mouse; details: EO771 cells via tail vein
Excerpt: as §1

[4] = tested on: 4T1.2 cells; experiment: Mouse model of a mammary tumor; type: in vivo; details: BALB/c mice, daily intraperitoneal injection of 10 mg/kg OAC2
[5] = tested on: 4T1.2 cells; experiment: MTT-based viability; type: cell-based, mouse; details: 1 to 5 μM OAC2
[6] = tested on: 4T1.2 cells; experiment: Western blot analysis; type: cell-based, mouse; details: 4T1.2 cells, OAC2 treatment
Description: Western blot analysis. Cultured cells were lysed in a radio-immunoprecipitation assay (RIPA) buffer and proteins were fractionated by 10-15% SDS gels and electro-transferred to polyvinylidene difluoride (PVDF) transfer membranes (Millipore, Billerica, MA, USA). The membrane was incubated overnight with primary antibodies and then with secondary antibodies conjugated with horseradish peroxidase (Cell Signaling, Danvers, MA, USA). Antibodies against c-Myc, Oct4, Sox2, Klf4, Lrp5, Runx2, Snail, TGFβ, Eno1, Eef2, vinculin (Cell Signaling, Danvers, MA, USA), MMP9, NFATc1, cathepsin K (Santa Cruz, Dallas, TX, USA), TRAIL (Novus, Centennial, CO, USA), p53 (Invitrogen, Carlsbad, CA, USA), Hsp90ab1 (Abcam, Cambridge, UK), Kdm3a (Thermo-Fisher Scientific, Waltham, MA, USA) and β-actin as a control (Sigma, St. Louis, MO, USA) were employed. The level of proteins was determined using a SUPERSIGNAL™ west femto maximum sensitivity substrate (Thermo-Fisher Scientific, Waltham, MA, USA), and a luminescent image analyzer (LAS-3000, Fuji Film, Tokyo, Japan) was used to quantify signal intensities.

| SMILES | tumor weight [1] | size of cancer tissue fragments [2] | number of tumor cells in the lung [3] | size of mammary tumors / progression of tumors, direct administration [4] | MTT-based viability / proliferation of tumor cells, direct application [5] | Oct4 level [6] |
| --- | --- | --- | --- | --- | --- | --- |
| COc1cccc(-c2cc(NCc3ccc4c(c3)OCO4)nc(N)n2)c1 [BML284] | Increase | modestly increased | Increase | – | – | – |
| O=C(Nc1ccc2[nH]ccc2c1)c1ccccc1 [OAC2] | – | – | – | did not alter; also recorded: No detectable change | did not alter; also recorded: No detectable change | Elevation |
